The values below come from ChEMBL document CHEMBL1926563, “Synthesis, antimicrobial, antimycobacterial and structure-activity relationship of substituted pyrazolo-, isoxazolo-, pyrimido- and mercaptopyrimidocyclohepta[b]indoles” (2012).

Converted amounts (≈) assume the structure as drawn.

Common to all, as to type: functional
Assay [1] deals with Klebsiella pneumoniae. The assay is described as follows: Antibacterial activity against Klebsiella pneumoniae NCIM 2957 after 24 hrs by disk diffusion method. As to conditions: NCIM 2957, 24 h. In general terms: In agar diffusion tests the substance spreads into inoculated agar from a disc or well.
The subject of assay [2] is Proteus vulgaris. Briefly: Antibacterial activity against Proteus vulgaris NCIM 2027 after 24 hrs by disk diffusion method. As to conditions: NCIM 2027, 24 h.
Assay [3] relates to Fusarium solani. The assay is described as follows: Antifungal activity against Fusarium solani NCIM 1330 after 48 hrs by disk diffusion method. As to conditions: NCIM 1330, 48 h.
Assay [4] concerns Curvularia lunata. Briefly: Antifungal activity against Curvularia lunata NCIM 716 after 48 hrs by disk diffusion method. As to conditions: NCIM 716, 48 h.
The test system of assay [5] is Aspergillus niger. The assay is described as follows: Antifungal activity against Aspergillus niger NCIM 596 after 48 hrs by disk diffusion method. The settings on record: NCIM 596, 48 h.
The test system of assay [6] is Mycobacterium tuberculosis. Briefly: Antimycobacterial activity against Mycobacterium tuberculosis H37Rv after 7 days by resazurin microtiter plate assay. As to conditions: 168 h. A general note: Resazurin is reduced to fluorescent resorufin, in cell work by metabolically active cells.
The test system of assay [7] is Staphylococcus aureus. Briefly: Antibacterial activity against Staphylococcus aureus NCIM 5021 assessed as zone of inhibition at 100 ug/disc after 24 hrs by disk diffusion method. The settings on record: NCIM 5021, 24 h, read-out: DIZ.
In assay [8] the test system is Staphylococcus aureus. Briefly: Antibacterial activity against Staphylococcus aureus NCIM 5021 assessed as zone of inhibition at 200 ug/disc after 24 hrs by disk diffusion method. As to conditions: NCIM 5021, 24 h, read-out: DIZ.
In assay [9] the test system is Bacillus subtilis. Briefly: Antibacterial activity against Bacillus subtilis NCIM 2063 assessed as zone of inhibition at 100 ug/disc after 24 hrs by disk diffusion method. As to conditions: NCIM 2063, 24 h, read-out: DIZ.
For assay [10], the system named is Bacillus subtilis. The assay is described as follows: Antibacterial activity against Bacillus subtilis NCIM 2063 assessed as zone of inhibition at 200 ug/disc after 24 hrs by disk diffusion method. The settings on record: NCIM 2063, 24 h, read-out: DIZ.
In assay [11] the test system is Klebsiella pneumoniae. The assay is described as follows: Antibacterial activity against Klebsiella pneumoniae NCIM 2957 assessed as zone of inhibition at 100 ug/disc after 24 hrs by disk diffusion method. The settings on record: NCIM 2957, 24 h, read-out: DIZ.
In assay [12] the test system is Klebsiella pneumoniae. Briefly: Antibacterial activity against Klebsiella pneumoniae NCIM 2957 assessed as zone of inhibition at 200 ug/disc after 24 hrs by disk diffusion method. The settings on record: NCIM 2957, 24 h, read-out: DIZ.
The test system of assay [13] is Proteus vulgaris. The assay is described as follows: Antibacterial activity against Proteus vulgaris NCIM 2027 assessed as zone of inhibition at 100 ug/disc after 24 hrs by disk diffusion method. As to conditions: NCIM 2027, 24 h, read-out: DIZ.
Assay [14] relates to Proteus vulgaris. Briefly: Antibacterial activity against Proteus vulgaris NCIM 2027 assessed as zone of inhibition at 200 ug/disc after 24 hrs by disk diffusion method. As to conditions: NCIM 2027, 24 h, read-out: DIZ.
The subject of assay [15] is Fusarium solani. Briefly: Antifungal activity against Fusarium solani NCIM 1330 assessed as zone of inhibition at 100 ug/disc after 48 hrs by disk diffusion method. As to conditions: NCIM 1330, 48 h, read-out: DIZ.
The subject of assay [16] is Fusarium solani. The assay is described as follows: Antifungal activity against Fusarium solani NCIM 1330 assessed as zone of inhibition at 200 ug/disc after 48 hrs by disk diffusion method. As to conditions: NCIM 1330, 48 h, read-out: DIZ.
For assay [17], the system named is Curvularia lunata. Briefly: Antifungal activity against Curvularia lunata NCIM 716 assessed as zone of inhibition at 100 ug/disc after 48 hrs by disk diffusion method. As to conditions: NCIM 716, 48 h, read-out: DIZ.
Assay [18] has as its system Curvularia lunata. Briefly: Antifungal activity against Curvularia lunata NCIM 716 assessed as zone of inhibition at 200 ug/disc after 48 hrs by disk diffusion method. The settings on record: NCIM 716, 48 h, read-out: DIZ.
For assay [19], the system named is Aspergillus niger. The assay is described as follows: Antifungal activity against Aspergillus niger NCIM 596 assessed as zone of inhibition at 100 ug/disc after 48 hrs by disk diffusion method. As to conditions: NCIM 596, 48 h, read-out: DIZ.
For assay [20], the system named is Aspergillus niger. Briefly: Antifungal activity against Aspergillus niger NCIM 596 assessed as zone of inhibition at 200 ug/disc after 48 hrs by disk diffusion method. The settings on record: NCIM 596, 48 h, read-out: DIZ.
For assay [21], the system named is Staphylococcus aureus. The assay is described as follows: Antibacterial activity against Staphylococcus aureus NCIM 5021 after 24 hrs by disk diffusion method. As to conditions: NCIM 5021, 24 h.
The test system of assay [22] is Bacillus subtilis. The assay is described as follows: Antibacterial activity against Bacillus subtilis NCIM 2063 after 24 hrs by disk diffusion method. The settings on record: NCIM 2063, 24 h.

With `Clc1ccc2[nH]c3c(c2c1)CCCc1cnn(-c2ccccc2)c1-3`, the MIC (usually the least concentration at which growth counts as inhibited) against Klebsiella pneumoniae [1] was determined as 50 µg/mL (≈ 150 µM); in the assay on Proteus vulgaris [2], 50 µg/mL (≈ 150 µM); in the assay with Fusarium solani [3] it was 200 µg/mL (≈ 599 µM); in the assay on Curvularia lunata [4] it was 100 µg/mL (≈ 300 µM); with Aspergillus niger [5], 100 µg/mL (≈ 300 µM); in [6], 3.12 µg/mL (≈ 9.35 µM). Moreover, the MIC with Staphylococcus aureus [21] and with Bacillus subtilis [22] was 25 µg/mL (≈ 74.9 µM) in each case. For the same molecule, the zone of inhibition at 100 µg/disc in the assay with Staphylococcus aureus [7] came to 32 mm; with Bacillus subtilis [9], 33 mm; in the assay with Klebsiella pneumoniae [11], 28 mm; in the assay on Proteus vulgaris [13], 29 mm; in the assay with Fusarium solani [15], 32 mm; in the assay on Curvularia lunata [17] it was 31 mm. For the same molecule, the zone of inhibition at 100 µg/disc with Aspergillus niger [19] stood at 30 mm. Further, the zone of inhibition at 200 µg/disc with Staphylococcus aureus [8] was found to be 34 mm; in the assay on Bacillus subtilis [10], 32 mm; in the assay on Klebsiella pneumoniae [12], 30 mm; with Proteus vulgaris [14] it was 31 mm; with Fusarium solani [16], 39 mm; in the assay on Curvularia lunata [18], 38 mm. Also, the zone of inhibition at 200 µg/disc in the assay on Aspergillus niger [20] was 35 mm.
Regarding `Oc1ncc2c(n1)-c1[nH]c3ccc(Cl)cc3c1CCC2`, the MIC in the assay with Klebsiella pneumoniae [1] was determined as 100 µg/mL (≈ 350 µM); with Proteus vulgaris [2], 100 µg/mL (≈ 350 µM); in the assay on Fusarium solani [3], 100 µg/mL (≈ 350 µM); in the assay with Curvularia lunata [4], 50 µg/mL (≈ 175 µM); with Aspergillus niger [5], 50 µg/mL (≈ 175 µM); in assay [6], 3.12 µg/mL (≈ 10.9 µM). Also, the MIC in the assay with Staphylococcus aureus [21] and against Bacillus subtilis [22] was 50 µg/mL (≈ 175 µM) in each case. In addition, the zone of inhibition at 100 µg/disc is 26 mm in the assay on Staphylococcus aureus [7]; 25 mm with Bacillus subtilis [9]; 22 mm with Klebsiella pneumoniae [11]; 22 mm in the assay on Proteus vulgaris [13]; 17 mm in the assay with Fusarium solani [15]; 19 mm with Curvularia lunata [17]. For the same molecule, the zone of inhibition at 100 µg/disc in the assay on Aspergillus niger [19] was 16 mm. The zone of inhibition at 200 µg/disc with Staphylococcus aureus [8] amounted to 27 mm; with Bacillus subtilis [10], 28 mm; in the assay on Klebsiella pneumoniae [12], 25 mm; with Proteus vulgaris [14], 20 mm; in the assay with Fusarium solani [16] it was 20 mm; in the assay with Curvularia lunata [18] it was 23 mm. For the same molecule, the zone of inhibition at 200 µg/disc in the assay on Aspergillus niger [20] amounted to 19 mm.
Consider `Clc1ccc2[nH]c3c(c2c1)CCCc1c[nH]nc1-3`, for which the MIC against Klebsiella pneumoniae [1] was 100 µg/mL (≈ 388 µM); with Proteus vulgaris [2], 100 µg/mL (≈ 388 µM); in the assay with Fusarium solani [3], 200 µg/mL (≈ 776 µM); with Curvularia lunata [4], 200 µg/mL (≈ 776 µM); with Aspergillus niger [5] it was 200 µg/mL (≈ 776 µM); in assay [6], 12.5 µg/mL (≈ 48.5 µM). Also, the MIC against Staphylococcus aureus [21] and in the assay on Bacillus subtilis [22] was 100 µg/mL (≈ 388 µM) throughout. For the same molecule, the zone of inhibition at 100 µg/disc with Staphylococcus aureus [7] was 34 mm; in the assay with Bacillus subtilis [9], 35 mm; with Klebsiella pneumoniae [11], 30 mm; with Proteus vulgaris [13], 31 mm; with Fusarium solani [15] it was 35 mm; with Curvularia lunata [17], 34 mm. For the same molecule, the zone of inhibition at 100 µg/disc with Aspergillus niger [19] stood at 32 mm. Further, the zone of inhibition at 200 µg/disc in the assay on Staphylococcus aureus [8] is 36 mm; in the assay on Bacillus subtilis [10], 37 mm; in the assay on Klebsiella pneumoniae [12], 32 mm; with Proteus vulgaris [14], 33 mm; in the assay with Fusarium solani [16], 39 mm; in the assay with Curvularia lunata [18] it was 38 mm. The zone of inhibition at 200 µg/disc in the assay with Aspergillus niger [20] stood at 35 mm.
